Reference: article PMC7271024, “N1-Benzofused Modification of Fluoroquinolones Reduces Activity Against Gram-Negative Bacteria” (ACS Omega, 2020)
In brackets after ≈: the same amount, converted by molar mass.

Tests used:
[1] = system: K. pneumoniae M6; test: MIC, microdilution broth method; type: cell-based, Klebsiella pneumoniae; conditions: Klebsiella pneumoniae, ciprofloxacin-sensitive strain (S)
[2] = system: E. coli LEC001; test: MIC, microdilution broth method; type: cell-based, Escherichia coli; conditions: Escherichia coli, ciprofloxacin-resistant strain (R)
Protocol: (§1) The antibacterial activities of the synthesized fluoroquinolones were evaluated against a panel of Gram-negative pathogens including K. pneumoniae (NCTC 13368, M6), Acinetobacter baumannii (AYE, ATCC 17978), Pseudomonas aeruginosa (PAO1, NCTC 13437), and Escherichia coli (NCTC 12923, LEC001). The ability of molecules to permeate the Gram-negative outer membrane was investigated by adding membrane permeabilizer polymyxin B nonapeptide (PMBN) at sub-inhibitory concentrations (Table 2). Phenylalanine–arginine β-naphthylamide (PAβN) was used to investigate efflux of compounds by resistance–nodulation–division (RND)-family efflux pumps (Table 3).
(§2) Minimal inhibitory concentrations (MICs) were determined using the microdilution broth method. Briefly, compounds were added to the first two columns of a 96-well plate and diluted two-fold down the plate in tryptic soy broth. Overnight cultures of bacteria were then adjusted to a concentration of 1 × 10^6 CFU/mL and added to each well for a final concentration of 5 × 10^5 CFU/mL.

[3] = system: E. coli NCTC 12923; test: MIC, microdilution broth method; type: cell-based, Escherichia coli; conditions: Escherichia coli, ciprofloxacin-sensitive strain (S)
[4] = Solubility as observed in the MIC and enzyme experiments; type: physicochemical; conditions: evidenced when undertaking the MIC experiments
Protocol: In vitro activity assays using purified S. aureus, E. coli and P. aeruginosa DNA gyrase, and S. aureus topoisomerase IV enzymes were performed in order to evaluate whether the gains in inhibitory activity predicted for the benzofused compounds were accurate. The benzothiophene-containing 6e was selected as a representative compound for the purposes of this experiment. […].
A general correlation between N1 substituent hydrophobicity and activity is observed; […].

[5] = system: A. baumannii AYE; test: MIC, microdilution broth method; type: cell-based, Acinetobacter baumannii; conditions: Acinetobacter baumannii, ciprofloxacin-resistant strain (R)
Protocol: as §1, §2

[6] = system: P. aeruginosa PAO1; test: MIC, microdilution broth method; type: cell-based, Pseudomonas aeruginosa; conditions: for potentiation of MIC by PMBN: MIC –PMBN vs +PMBN; for MIC: Pseudomonas aeruginosa, ciprofloxacin-sensitive strain (S)
[7] = system: P. aeruginosa NCTC 13437; test: MIC, microdilution broth method; type: cell-based, Pseudomonas aeruginosa; conditions: for potentiation of MIC by PMBN: MIC –PMBN vs +PMBN; for MIC: Pseudomonas aeruginosa, ciprofloxacin-resistant strain (R)
Protocol: as §1, §2

[8] = system: A. baumannii ATCC 17978; test: MIC, microdilution broth method; type: cell-based, Acinetobacter baumannii; conditions: Acinetobacter baumannii, ciprofloxacin-sensitive strain (S)
[9] = system: panel of Gram-negative pathogens; test: MIC panel, statements across strains; type: cell-based, K. pneumoniae, A. baumannii, P. aeruginosa, E. coli; conditions: versus ciprofloxacin
Protocol: as §1, §2

[10] = system: K. pneumoniae NCTC 13368; test: MIC, microdilution broth method; type: cell-based, Klebsiella pneumoniae; conditions: Klebsiella pneumoniae, ciprofloxacin-resistant strain (R)
Protocol: as §1, §2

MIC ([1]; M6, +PMBN (30 μg/mL)) [µg/mL]	MIC ([1]; M6, –PMBN) [µg/mL]	MIC ([2]; LEC001, +PMBN (30 μg/mL)) [µg/mL]	MIC ([2]; LEC001, –PMBN) [µg/mL]	MIC ([3]; NCTC12923, +PMBN (30 μg/mL)) [µg/mL]	MIC ([3]; NCTC12923, –PMBN) [µg/mL]	solubility profile [4]	MIC ([5]; +PMBN (30 μg/mL)) [µg/mL]	MIC ([5]; –PMBN) [µg/mL]	potentiation of MIC by PMBN [6]	MIC ([6]; PAO1, +PMBN (30 μg/mL)) [µg/mL]	MIC ([6]; PAO1, –PMBN) [µg/mL]	potentiation of MIC by PMBN [7]	MIC ([7]; NCTC13437, +PMBN (30 μg/mL)) [µg/mL]	MIC ([7]; NCTC13437, –PMBN) [µg/mL]	MIC ([8]; ATCC17978, +PMBN (30 μg/mL)) [µg/mL]	MIC ([8]; ATCC17978, –PMBN) [µg/mL]	MIC ([10]; NCTC13368, +PMBN (30 μg/mL)) [µg/mL]	MIC ([10]; NCTC13368, –PMBN) [µg/mL]	SMILES	antibacterial activity [9]
> 128	> 128	> 32	> 32	32 (≈ 75.9 µM)	> 128	poor solubility profiles	> 128	> 128	over 8 fold	16 (≈ 38 µM)	> 128	over 8 fold	32 (≈ 75.9 µM)	> 128	> 128	> 128	> 128	> 128	O=C(O)c1cn(Cc2cccc3ccoc23)c2cc(N3CCNCC3)c(F)cc2c1=O [Compound 6f]	almost complete loss of activity
> 128	> 128	> 32	> 32	128 (≈ 293 µM)	> 128	poor solubility profiles	> 128	> 128	over 8 fold	32 (≈ 73.1 µM)	> 128	over 8 fold	16 (≈ 36.6 µM)	> 128	> 128	> 128	> 128	> 128	O=C(O)c1cn(Cc2cccc3ccsc23)c2cc(N3CCNCC3)c(F)cc2c1=O [Compound 6g]	almost complete loss of activity
